Test results from patent US8198285B2, “Pyrazine derivatives” (Astrazeneca AB, priority 2010, dated 2012).
pIC50: −log10 of the molar value. Counter-ions that a name gives are not always drawn.

Molecular target: T1, human GSK3β enzyme (Homo sapiens, UniProt P49841)
T1 construct: His6 (N); purchased Millipore 14-306; host or cells: baculovirus / Sf21 insect cells
Experiment: In vitro GSK3β kinase assay (FRET, Z'-LYTE), Test (a)
Assay type: biochemical
Conditions: read-out: IC50 versus human GSK3β enzyme
Text: This biochemical assay used a Fluorescence Resonance Energy Transfer (FRET)-based, coupled-enzyme format to determine the ability of test compounds to inhibit substrate phosphorylation by recombinant GSK3β serine/threonine kinase (Kleman-Leyer, K. et al. Drug Disc. Devel. 2003, 6:81-2). The substrate used in this assay was Z′-LYTE™ ser/Thr 9 peptide and the FRET assay kit was obtained from Invitrogen (Paisley, UK, catalogue number PV3324). N-terminal His6-tagged recombinant human GSK313, with an H350 L mutation, was expressed in baculovirus in Sf21 insect cells, purified and obtained from Millipore (Billerica, Mass., USA, catalogue number 14-306 Human).
Test compounds were prepared as 10 mM stock solutions in dimethylsulphoxide (DMSO) and diluted in DMSO as required. Aliquots (2.5 μl) of compound dilutions were added to the wells of an Optiplate-F PerkinElmer 384-well plate (Massachusetts, USA, catalogue number 6007270). Control wells that produced a maximum signal corresponding to maximum enzyme activity were created by using 100% phosphorylated peptide obtained from Invitrogen (Paisley, UK, catalogue number PV3326). A 5 μl aliquot of 100% phosphorylated peptide (100 μM in 1.33× kinase buffer) was added to all maximum control wells. 2.5 μl of 4% DMSO solution (v/v) in 1.33× kinase buffer was added to maximum control wells. Control wells that produced a minimum signal corresponding to 100% inhibited enzyme were created by adding 2.5 μl of 40 μM Staurosporine in 1.33× kinase buffer containing 4% DMSO (v/v). A 5 μl mixture of GSK3β (100 ng/μl) enzyme and non-phosphorylated substrate (Z-LYTE™ ser/Thr 9 peptide, 100 μM) in a 1.33× kinase buffer solution was added to each well except maximum control wells and the assay plate centrifuged at 270 g for 1 minute. The kinase buffer used 1.33× was obtained from Invitrogen (Paisley, UK, catalogue number PV3189) and contained 67 mM HEPES (pH 7.5), 13 mM MgCl2, 1.3 mM EGTA, 0.01% BRIJ-35. Then 2.5 μl adenosine triphosphate (28 μM) in kinase buffer was added per well, centrifuged at 270 g for 1 minute and then the assay plate was shaken for 1 hour at room temperature. A proprietary development solution was prepared by adding 58 μl of development reagent A (Invitrogen, Paisley, UK, catalogue number PV3297) to 2142 μl of development reagent B (Invitrogen, Paisley, UK, catalogue number P3127). […]
The resultant signals arising from laser light excitation at 400 nm were read using a Perkin Elmer Envision spectrophotometer (Perkin Elmer, Massachusetts, USA). […] A ratiometric method, which calculates the ratio (the Emission Ratio) of donor emission to acceptor emission after excitation of the donor fluorophore at 400 nm, quantitates reaction progress, as shown in the equation below. […]

T1 sequence (P49841 whole entry): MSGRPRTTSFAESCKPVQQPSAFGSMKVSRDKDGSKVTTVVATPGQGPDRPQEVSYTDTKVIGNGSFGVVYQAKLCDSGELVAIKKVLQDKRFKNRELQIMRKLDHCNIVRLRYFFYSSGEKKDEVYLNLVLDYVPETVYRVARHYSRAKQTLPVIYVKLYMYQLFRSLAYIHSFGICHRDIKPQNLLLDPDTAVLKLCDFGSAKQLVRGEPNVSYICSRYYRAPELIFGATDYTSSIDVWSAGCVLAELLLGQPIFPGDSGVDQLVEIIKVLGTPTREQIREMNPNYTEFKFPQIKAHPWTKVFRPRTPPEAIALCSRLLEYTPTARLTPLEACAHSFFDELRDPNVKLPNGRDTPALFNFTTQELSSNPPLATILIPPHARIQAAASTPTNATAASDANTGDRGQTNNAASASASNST

COCCCNCCCc1ccc(-c2cnc(N)c(C(=O)Nc3cccnc3)n2)cc1 [Example 1, 3-Amino-6-(4-{3-[(3-methoxypropyl)amino]propyl}phenyl)-N-pyridin-3-ylpyrazine-2-carboxamide tri-hydrochloride]
pIC50: ~7.46
